Data reported in publication PMC12706794, “Identification and Characterization of a Small-Molecule Inhibitor of the Pseudomonas aeruginosa SOS Response” (ACS Infectious Diseases, 2025).

Legend:
[1] = molecular target: T1, RecAPa*-induced FlAsH-LexAPa CTD autoproteolysis (Pseudomonas aeruginosa, UniProt P37452); experiment: FP-based RecA*-induced LexA autoproteolysis in vitro assay; format: biochemical, P. aeruginosa
T1 construct: 6His-SUMO (N, cleaved yes); made in house; host or cells: E. coli BL21(DE3)
Method: A custom-made library of 318 small molecules (MW < 1000 Da) has been screened at two different concentrations (25 μg/mL and 125 μg/mL, corresponding to molar concentrations of 30–170 μM and 150–850 μM, respectively) on the P. aeruginosa SOS system by a previously validated fluorescence polμarization (FP)-based RecA*-induced LexA autoproteolysis in vitro assay. , 1 μM FlAsH-LexAPa ^CTD and 1 μM preactivated RecA*Pa were incubated with the screened chemical fragments for 1 h at 37 °C before measuring FP.
Then, the FP-based LexA autoproteolysis assay was repeated on the two hits, monitoring the full kinetics of LexA cleavage over a 1 h incubation and exploring a wide range of drug concentrations (10–1000 μM).
A custom-made library of 318 chemical fragments (25 mg/mL stock solutions in DMSO), provided by P. Kavaliauskas (Weill Cornell Medicine of Cornell University) was screened in vitro for their ability to inhibit RecAPa*-mediated LexAPa autoproteolysis by a Fluorescence Polarization (FP)-based assay. , Twenty microliter reactions were set up in Nunc 384-Well Black microplates, and final reaction mixtures included 1 μM FlAsH-LexAPa ^CTD, the compounds (5% v/v DMSO in all the samples, including the controls devoid of compounds), and 1 μM RecAPa* (FP Buffer in the negative control; 30 mM Hepes, 150 mM NaCl, pH 7.1). The initial screening was performed with two dilutions of the compounds (25 and 125 μg/mL). The FP signal was measured after a 1 h incubation at 37 °C by an EnVision MultiMode Plate Reader (PerkinElmer) equipped with opportune FP filters and mirrors. To obtain LexAPa ^CTD autoproteolysis percent inhibition, FP data were scaled from 0% (corresponding to the positive control sample) to 100% (negative control).
Compounds displaying an inhibition of at least 50% at the highest concentration and a rather consistent increase in activity at the two tested concentrations were selected as the hits.
The same FP assay was carried out on serial dilutions of selected compounds to determine the dose–response relationship. To evaluate the effect of a reducing environment, 2 mM Tris(2-carboxyethyl)-phosphine (TCEP) was added to the reaction mixtures. The FP signal of FlAsH-LexAPa ^CTD alone was detected for 5 min before adding the compounds. The system was monitored for an additional 5 min in the presence of the tested compounds in order to observe potential aggregation events. Then, RecAPa* was added, and the autoproteolysis reaction was followed for 1 h at 37 °C (1 reading per minute). FlAsH-LexAPa ^CTD autoproteolysis percent inhibition was calculated as mentioned above and plotted as a function of compound concentration. Experimental data fitting was performed with GraphPad Prism 8 to obtain the absolute IC50.

[2] = system: P. aeruginosa PAO1; experiment: Antimicrobial susceptibility testing (MIC); format: cell-based, P. aeruginosa PAO1 (ATCC 15692); conditions: A12 (32 μg/mL) (−)
Method: The MIC of compound A12 and antibiotics was determined by using the Clinical Laboratory Standard Institute (CLSI) recommendations with minor modifications. […] Microplates were incubated in a humidified incubator for 18 h at 37 °C, and the bacterial growth was quantified by OD600. According to CLSI, MICs are defined as the lowest concentrations of antimicrobial agents that prevent visible growth.

T1 sequence (P37452 81-204): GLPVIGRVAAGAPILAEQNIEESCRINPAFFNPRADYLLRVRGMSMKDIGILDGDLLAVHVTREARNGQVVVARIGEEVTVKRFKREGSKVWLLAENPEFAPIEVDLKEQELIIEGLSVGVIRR

O=C(O)CCNc1ccccc1S [A12, 3-(2-sulfanylanilino)propanoic acid]
IC50 ([1]; 1 μM FlAsH-LexAPa CTD, 1 μM RecAPa*, 1 h at 37 °C, read-out: IC50 on RecA*Pa-induced LexAPa autoproteolysis (FP assay)): 295 ± 12 µM | A12 inhibitory activity under reducing conditions compared to nonreducing ([1]; 2 mM TCEP): significantly diminished | inhibition at 125 µg/mL ([1]; compound at 125 μg/mL, 1 h at 37 °C, read-out: LexA autoproteolysis inhibition in initial library screening): > 50% | MIC on P. aeruginosa PAO1 [2]: no antimicrobial activity | MIC ([2]; Pseudomonas aeruginosa, PAO1): > 32 µg/mL
